Reference: ChEMBL document CHEMBL1201862, “PubChem BioAssay data set” (2004)
Activity calls are given as the source filed them.

Key:
Caspase-3 = biological target: T1, Caspase-3 (Homo sapiens, UniProt P42574); test: activators of human procaspase-3 D3A mutant – biochemical, absorbance, PC-3 D3A mutant, counter-screen for dual procaspase-3/7 activator project, dose response (AID 504328)
T1 sequence (P42574 whole entry): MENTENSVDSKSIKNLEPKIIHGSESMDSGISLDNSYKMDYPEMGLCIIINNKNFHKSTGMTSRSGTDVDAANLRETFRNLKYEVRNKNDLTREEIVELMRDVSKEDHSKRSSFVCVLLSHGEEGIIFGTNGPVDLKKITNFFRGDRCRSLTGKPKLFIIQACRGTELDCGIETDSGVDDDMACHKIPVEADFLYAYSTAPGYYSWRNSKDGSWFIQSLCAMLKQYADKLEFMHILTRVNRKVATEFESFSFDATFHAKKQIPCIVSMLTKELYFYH

Caspase-7 = Caspase-7 (Homo sapiens, UniProt P55210); test: potency of procaspase-7 enzyme activation – biochemical, absorbance, human, dual procaspase-3/-7 activator project, dose response (AID 504330)
HEK293 [1] = test: inhibition of NOD1-driven NF-kB reporter – cell-based, luminescence, uHTS, primary screen (AID 1578); assay type: functional; settings: Homo sapiens
HEK293 [2] = test: cells; assay type: functional, cell-based; settings: Homo sapiens
HEK293 [3] = test: cells; assay type: functional, cell-based; settings: Homo sapiens; remark: listed apart in the source
HEK293 [4] = test: NOD2 signaling inhibitors in MDP-stimulated cells, cell-based, uHTS, luminescence (AID 2001); assay type: functional; settings: Homo sapiens
Tumor necrosis factor = Tumor necrosis factor (Homo sapiens, UniProt P01375); test: analog potency on TNFa NF-kB signaling – cell-based, revised, SAR follow-up (AID 2337); assay type: functional
[5] = biological target: T2, Nucleotide-binding oligomerization domain-containing protein 1 (Homo sapiens, UniProt Q9Y239); test: blockers of NOD1 pathway activity – revised, SAR follow-up (AID 2333); assay type: functional
T2 sequence (Q9Y239 whole entry): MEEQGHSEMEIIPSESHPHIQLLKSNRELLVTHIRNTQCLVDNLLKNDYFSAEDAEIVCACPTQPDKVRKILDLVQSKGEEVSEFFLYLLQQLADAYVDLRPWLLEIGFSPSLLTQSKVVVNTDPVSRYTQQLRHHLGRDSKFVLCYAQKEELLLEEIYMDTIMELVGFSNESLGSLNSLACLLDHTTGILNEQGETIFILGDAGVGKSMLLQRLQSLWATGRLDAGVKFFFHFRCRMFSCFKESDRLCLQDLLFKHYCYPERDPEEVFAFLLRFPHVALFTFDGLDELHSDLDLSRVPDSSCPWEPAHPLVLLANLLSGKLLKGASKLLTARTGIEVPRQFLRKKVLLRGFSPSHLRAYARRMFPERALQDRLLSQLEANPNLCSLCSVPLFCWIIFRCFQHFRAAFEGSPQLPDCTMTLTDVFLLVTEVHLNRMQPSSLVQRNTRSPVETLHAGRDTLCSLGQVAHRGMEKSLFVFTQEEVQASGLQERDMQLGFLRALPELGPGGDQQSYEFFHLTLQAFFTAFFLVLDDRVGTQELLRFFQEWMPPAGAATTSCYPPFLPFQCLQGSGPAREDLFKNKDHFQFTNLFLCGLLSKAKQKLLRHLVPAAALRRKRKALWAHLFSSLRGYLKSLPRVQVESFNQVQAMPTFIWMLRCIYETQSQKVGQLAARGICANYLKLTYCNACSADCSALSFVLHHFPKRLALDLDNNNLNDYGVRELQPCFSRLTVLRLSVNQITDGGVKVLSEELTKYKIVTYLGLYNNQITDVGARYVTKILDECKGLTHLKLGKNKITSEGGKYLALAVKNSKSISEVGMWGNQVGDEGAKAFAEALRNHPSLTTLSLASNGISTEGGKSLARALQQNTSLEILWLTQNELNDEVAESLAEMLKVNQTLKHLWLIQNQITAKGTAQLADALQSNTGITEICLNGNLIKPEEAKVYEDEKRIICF

[6] = biological target: T3, Ubiquitin-conjugating enzyme E2 N (Homo sapiens, UniProt P61088); assay type: functional;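 further: Dose-response confirmation in a TR-FRET assay detecting UBC13-driven polyubiquitin chain formation, inhibition measured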
T3 sequence (P61088 whole entry): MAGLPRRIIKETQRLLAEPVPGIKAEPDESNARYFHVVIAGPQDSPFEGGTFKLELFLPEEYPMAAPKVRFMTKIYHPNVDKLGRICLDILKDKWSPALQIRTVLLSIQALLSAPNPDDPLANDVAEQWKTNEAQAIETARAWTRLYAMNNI

[7] = biological target: Nucleotide-binding oligomerization domain-containing protein 2 (Homo sapiens, UniProt Q9HC29); test: PubChem AID 2334; assay type: functional
HEK293 [8] = test: cells; settings: Homo sapiens
[9] = biological target: Potassium voltage-gated channel subfamily KQT member 2 (Rattus norvegicus, UniProt O88943); test: potentiation of rat KCNQ2 current – cell-based, retigabine-insensitive compounds, dose response (AID 2654); assay type: functional
[10] = NIH-3T3 fibroblast cytotoxicity, dose response, cytotoxicity control, cell-based, fluorescence, Alamar Blue, secondary assay (AID 2327); assay type: functional;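 further: NIH-3T3 mouse fibroblasts cultured with fluconazole at 8 µg/mL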
[11] = biological target: T4, RNA-binding protein pos-1 (Caenorhabditis elegans, UniProt G5EF15); test: disruptors of C. elegans POS-1 RNA interaction – biochemical, fluorescence polarization, dose response (AID 1964);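 further: purified POS-1 fused to maltose binding protein made in E. coli; potency of compounds blocking POS-1 binding to fluorescent RNA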
T4 sequence (G5EF15 whole entry): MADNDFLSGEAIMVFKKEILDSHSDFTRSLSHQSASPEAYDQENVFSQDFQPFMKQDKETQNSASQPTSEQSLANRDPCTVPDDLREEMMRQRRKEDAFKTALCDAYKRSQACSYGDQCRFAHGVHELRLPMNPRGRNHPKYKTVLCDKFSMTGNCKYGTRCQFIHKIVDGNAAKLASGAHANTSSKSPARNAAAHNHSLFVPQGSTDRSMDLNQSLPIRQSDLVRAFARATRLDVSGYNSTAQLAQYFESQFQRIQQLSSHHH

[12] = biological target: Peroxisome proliferator-activated receptor gamma/Nuclear receptor coactivator 1 (Homo sapiens, UniProt P37231); test: (§1) TR-FRET dose response biochemical High Throughput Screening assay for agonists of the steroid receptor coactivator 1 (SRC-1) recruitment by the peroxisome proliferator-activated receptor gamma (PPAR gamma): non-selective agonists. [Related pubchem assays (depositor defined):AID1300, AID1808, AID504735, AID631]; assay type: protein assay
[13] = biological target: Peroxisome proliferator-activated receptor gamma/Nuclear receptor coactivator 3 (Homo sapiens, UniProt P37231); test: as §1, with “3 (SRC-3)” for “1 (SRC-1)”, “assays: 1301 (Confirmation screen.), 1048 (Primary screen.)]” for “assays (depositor defined):AID1300, AID1808, AID504735, AID631]”; assay type: functional
[14] = biological target: T5, Zinc finger protein mex-5 (Caenorhabditis elegans, UniProt Q9XUB2); test: potency of MEX-5 RNA-binding blockers – biochemical, C. elegans, fluorescence polarization, dose response (AID 1960)
T5 sequence (Q9XUB2 whole entry): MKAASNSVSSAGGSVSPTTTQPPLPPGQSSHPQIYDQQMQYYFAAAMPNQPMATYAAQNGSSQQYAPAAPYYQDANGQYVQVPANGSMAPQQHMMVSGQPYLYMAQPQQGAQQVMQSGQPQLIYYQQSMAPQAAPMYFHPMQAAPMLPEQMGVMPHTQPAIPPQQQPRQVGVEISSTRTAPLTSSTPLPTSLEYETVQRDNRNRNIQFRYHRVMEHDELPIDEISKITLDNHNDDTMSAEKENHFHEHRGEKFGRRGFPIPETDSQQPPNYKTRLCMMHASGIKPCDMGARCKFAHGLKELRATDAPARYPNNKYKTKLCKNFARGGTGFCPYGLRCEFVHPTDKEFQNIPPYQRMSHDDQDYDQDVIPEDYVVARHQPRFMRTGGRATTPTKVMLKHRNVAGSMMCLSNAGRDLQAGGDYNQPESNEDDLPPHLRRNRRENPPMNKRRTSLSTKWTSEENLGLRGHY

[15] = fluconazole-exposed Candida albicans growth modulators – fluorescence, retest, confirmation (AID 2467); assay type: functional, cell-based
[16] = biological target: Peroxisome proliferator-activated receptor gamma/Nuclear receptor coactivator 2 (Homo sapiens, UniProt P37231); test: TR-FRET dose response biochemical High Throughput Screening assay for agonists of the steroid receptor coactivator 2 (SRC-2) recruitment by the peroxisome proliferator-activated receptor gamma (PPAR gamma): non-selective agonists. [Related pubchem assays: 1297, 1032 ]; assay type: functional
ORF 73 = ORF 73 (Human herpesvirus 8, UniProt O40947); test: KSHV LANA DNA-binding disruption – biochemical, fluorescence polarization, cherry-picked samples, dose response (AID 504725); set-up: species or system Human gammaherpesvirus 8;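 further: fluorescence polarization of a labeled DNA duplex reporting LANA DNA binding; potency is for inhibitors that block LANA binding to the DNA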
[17] = biological target: UDP-galactopyranose mutase (Mycobacterium tuberculosis, UniProt P9WIQ1); test: Inhibitors of Mycobacterium tuberculosis UDP-galactopyranose mutase (UGM) enzyme Measured in Biochemical System Using Plate Reader - 2105-02_Inhibitor_Dose_CherryPick_Activity. [Related pubchem assays (depositor defined):AID504439]
Keap1/Nrf2 = Keap1/Nrf2 (Homo sapiens, UniProt Q14145); test: disruptors of Keap1 binding to Nrf2 peptide – biochemical, fluorescence polarization, cherry-picked samples, dose response (AID 588683)
Sequence of Keap1/Nrf2 (Q16236 whole entry): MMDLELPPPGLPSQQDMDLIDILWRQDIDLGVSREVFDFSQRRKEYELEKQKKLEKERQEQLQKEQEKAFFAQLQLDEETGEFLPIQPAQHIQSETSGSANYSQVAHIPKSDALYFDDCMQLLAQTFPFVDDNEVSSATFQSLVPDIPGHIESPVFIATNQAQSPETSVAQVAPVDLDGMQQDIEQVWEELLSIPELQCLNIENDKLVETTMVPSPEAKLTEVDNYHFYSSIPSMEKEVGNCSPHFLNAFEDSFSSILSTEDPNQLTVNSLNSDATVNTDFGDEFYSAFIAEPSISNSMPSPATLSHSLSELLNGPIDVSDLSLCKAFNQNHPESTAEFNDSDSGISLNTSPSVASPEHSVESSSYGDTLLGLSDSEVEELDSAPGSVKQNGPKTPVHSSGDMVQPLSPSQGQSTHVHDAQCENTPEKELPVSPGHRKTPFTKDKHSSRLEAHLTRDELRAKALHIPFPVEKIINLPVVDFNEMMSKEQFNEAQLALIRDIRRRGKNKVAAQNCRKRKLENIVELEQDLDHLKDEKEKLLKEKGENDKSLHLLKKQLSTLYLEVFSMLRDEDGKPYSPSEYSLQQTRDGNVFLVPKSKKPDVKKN
Sequence of Keap1/Nrf2 (Q14145 whole entry): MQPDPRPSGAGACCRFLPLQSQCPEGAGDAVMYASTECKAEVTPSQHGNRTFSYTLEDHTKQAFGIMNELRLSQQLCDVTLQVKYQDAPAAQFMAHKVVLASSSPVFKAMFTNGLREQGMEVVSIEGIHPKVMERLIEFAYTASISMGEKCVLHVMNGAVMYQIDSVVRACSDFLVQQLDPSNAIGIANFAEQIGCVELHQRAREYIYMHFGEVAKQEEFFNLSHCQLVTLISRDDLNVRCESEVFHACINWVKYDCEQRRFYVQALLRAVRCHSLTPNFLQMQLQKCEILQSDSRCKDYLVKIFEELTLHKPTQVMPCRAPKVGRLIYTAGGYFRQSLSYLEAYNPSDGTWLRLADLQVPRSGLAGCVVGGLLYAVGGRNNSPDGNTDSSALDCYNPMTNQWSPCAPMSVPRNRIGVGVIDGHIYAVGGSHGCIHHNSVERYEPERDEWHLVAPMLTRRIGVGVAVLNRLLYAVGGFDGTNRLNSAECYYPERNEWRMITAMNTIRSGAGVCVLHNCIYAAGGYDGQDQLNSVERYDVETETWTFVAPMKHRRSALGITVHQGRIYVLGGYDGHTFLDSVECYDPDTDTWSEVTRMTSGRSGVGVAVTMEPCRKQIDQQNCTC

Sequence of UDP-galactopyranose mutase (P9WIQ1 whole entry): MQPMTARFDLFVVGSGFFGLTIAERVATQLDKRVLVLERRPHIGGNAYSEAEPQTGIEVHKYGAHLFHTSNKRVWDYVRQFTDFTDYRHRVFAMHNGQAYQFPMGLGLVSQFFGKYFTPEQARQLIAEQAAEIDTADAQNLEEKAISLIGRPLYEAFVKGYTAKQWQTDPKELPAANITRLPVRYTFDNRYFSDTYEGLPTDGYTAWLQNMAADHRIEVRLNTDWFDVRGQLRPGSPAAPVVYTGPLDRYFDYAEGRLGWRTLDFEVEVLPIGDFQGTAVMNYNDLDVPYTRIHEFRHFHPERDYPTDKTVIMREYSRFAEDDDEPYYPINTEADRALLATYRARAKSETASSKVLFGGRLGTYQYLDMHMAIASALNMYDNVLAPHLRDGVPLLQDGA
Sequence of Nucleotide-binding oligomerization domain-containing protein 2 (Q9HC29 whole entry, the tested form may be a part): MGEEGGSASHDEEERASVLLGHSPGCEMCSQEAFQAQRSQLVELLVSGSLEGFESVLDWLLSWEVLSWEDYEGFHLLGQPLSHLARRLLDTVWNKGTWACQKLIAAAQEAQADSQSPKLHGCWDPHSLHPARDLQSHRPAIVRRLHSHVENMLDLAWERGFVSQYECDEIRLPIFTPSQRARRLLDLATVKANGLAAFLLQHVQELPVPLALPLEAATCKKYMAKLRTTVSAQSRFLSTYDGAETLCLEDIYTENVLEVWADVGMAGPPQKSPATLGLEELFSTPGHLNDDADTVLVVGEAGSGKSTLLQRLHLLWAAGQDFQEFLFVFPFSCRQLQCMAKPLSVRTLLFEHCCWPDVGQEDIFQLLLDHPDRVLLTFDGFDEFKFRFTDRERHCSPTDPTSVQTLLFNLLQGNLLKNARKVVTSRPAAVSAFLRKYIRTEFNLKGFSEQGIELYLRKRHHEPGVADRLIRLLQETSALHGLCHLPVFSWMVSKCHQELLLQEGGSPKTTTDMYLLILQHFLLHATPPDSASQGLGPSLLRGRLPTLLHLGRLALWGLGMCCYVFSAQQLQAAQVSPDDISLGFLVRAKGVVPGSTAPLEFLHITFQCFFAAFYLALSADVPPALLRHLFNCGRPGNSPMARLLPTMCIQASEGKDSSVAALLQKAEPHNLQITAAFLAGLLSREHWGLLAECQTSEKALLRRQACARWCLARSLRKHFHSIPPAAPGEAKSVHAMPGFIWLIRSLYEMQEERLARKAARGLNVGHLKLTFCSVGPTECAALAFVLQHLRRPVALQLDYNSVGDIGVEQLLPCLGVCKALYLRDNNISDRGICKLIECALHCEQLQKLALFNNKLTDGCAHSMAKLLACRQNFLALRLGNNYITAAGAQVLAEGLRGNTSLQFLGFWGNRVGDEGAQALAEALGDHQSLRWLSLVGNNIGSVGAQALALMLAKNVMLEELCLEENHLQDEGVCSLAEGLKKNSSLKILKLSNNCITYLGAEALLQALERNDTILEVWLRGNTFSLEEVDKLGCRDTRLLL
Sequence of ORF 73 (O40947 whole entry): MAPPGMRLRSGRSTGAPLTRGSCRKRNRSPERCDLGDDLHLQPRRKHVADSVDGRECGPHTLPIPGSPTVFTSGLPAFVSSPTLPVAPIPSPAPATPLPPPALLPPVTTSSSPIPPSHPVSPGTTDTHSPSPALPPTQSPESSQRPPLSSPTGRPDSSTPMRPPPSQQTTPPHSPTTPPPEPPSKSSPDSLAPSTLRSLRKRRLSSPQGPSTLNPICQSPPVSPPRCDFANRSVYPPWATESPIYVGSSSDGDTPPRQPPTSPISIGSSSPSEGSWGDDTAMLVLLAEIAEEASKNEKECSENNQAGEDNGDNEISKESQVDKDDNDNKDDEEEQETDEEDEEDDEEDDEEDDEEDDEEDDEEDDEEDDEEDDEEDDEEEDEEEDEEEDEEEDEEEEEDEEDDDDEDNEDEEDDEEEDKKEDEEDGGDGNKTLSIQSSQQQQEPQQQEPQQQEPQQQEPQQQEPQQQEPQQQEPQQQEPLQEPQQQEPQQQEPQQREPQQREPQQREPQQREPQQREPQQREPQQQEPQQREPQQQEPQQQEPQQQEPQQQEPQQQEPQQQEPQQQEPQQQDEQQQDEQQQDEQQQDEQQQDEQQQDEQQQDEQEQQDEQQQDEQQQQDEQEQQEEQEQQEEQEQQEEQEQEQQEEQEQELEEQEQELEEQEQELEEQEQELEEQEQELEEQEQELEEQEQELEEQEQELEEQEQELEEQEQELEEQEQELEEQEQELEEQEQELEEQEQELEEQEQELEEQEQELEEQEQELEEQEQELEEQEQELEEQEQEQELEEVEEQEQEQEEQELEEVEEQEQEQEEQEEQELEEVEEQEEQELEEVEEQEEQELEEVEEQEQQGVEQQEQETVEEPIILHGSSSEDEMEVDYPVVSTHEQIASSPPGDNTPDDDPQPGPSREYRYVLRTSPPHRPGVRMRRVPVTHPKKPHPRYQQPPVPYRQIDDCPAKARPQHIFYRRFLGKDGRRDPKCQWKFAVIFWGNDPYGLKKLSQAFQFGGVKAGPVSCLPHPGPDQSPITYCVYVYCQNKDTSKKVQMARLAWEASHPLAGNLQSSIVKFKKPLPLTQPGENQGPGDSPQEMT
Sequence of Tumor necrosis factor (P01375 whole entry, the tested form may be a part): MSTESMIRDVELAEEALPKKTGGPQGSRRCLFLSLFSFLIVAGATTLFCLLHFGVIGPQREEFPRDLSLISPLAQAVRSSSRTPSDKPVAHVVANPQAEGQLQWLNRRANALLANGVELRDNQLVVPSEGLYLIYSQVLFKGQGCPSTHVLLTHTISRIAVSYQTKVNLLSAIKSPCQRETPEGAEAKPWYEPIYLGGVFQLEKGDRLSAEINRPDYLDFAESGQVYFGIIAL
Sequence of Potassium voltage-gated channel subfamily KQT member 2 (O88943 whole entry): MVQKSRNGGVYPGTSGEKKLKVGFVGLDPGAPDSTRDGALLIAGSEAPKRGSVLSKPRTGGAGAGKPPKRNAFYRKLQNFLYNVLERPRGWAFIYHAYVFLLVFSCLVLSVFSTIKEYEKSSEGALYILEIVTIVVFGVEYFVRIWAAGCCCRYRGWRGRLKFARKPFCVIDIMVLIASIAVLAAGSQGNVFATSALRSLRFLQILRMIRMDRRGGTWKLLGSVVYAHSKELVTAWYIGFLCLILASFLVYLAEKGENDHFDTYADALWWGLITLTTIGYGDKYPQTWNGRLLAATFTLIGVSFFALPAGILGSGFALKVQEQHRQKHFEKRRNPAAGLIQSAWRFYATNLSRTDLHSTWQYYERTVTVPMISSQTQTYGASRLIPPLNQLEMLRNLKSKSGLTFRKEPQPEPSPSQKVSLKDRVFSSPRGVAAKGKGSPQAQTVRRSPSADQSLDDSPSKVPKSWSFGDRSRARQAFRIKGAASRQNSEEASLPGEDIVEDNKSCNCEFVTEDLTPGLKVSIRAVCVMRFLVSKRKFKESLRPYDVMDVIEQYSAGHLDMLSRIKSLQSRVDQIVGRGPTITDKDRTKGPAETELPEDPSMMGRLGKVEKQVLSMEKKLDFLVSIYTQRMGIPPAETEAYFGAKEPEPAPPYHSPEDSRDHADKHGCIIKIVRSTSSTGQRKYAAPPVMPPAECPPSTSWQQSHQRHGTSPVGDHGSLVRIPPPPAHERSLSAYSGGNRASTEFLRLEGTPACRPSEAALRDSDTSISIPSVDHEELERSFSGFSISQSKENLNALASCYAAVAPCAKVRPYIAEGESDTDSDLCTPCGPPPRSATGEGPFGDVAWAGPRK

For `COc1cccc(NC(=O)c2ccnc(N3CCC(C(=O)NCc4cc(OC)ccc4OC)CC3)c2)c1`, the EC50 (Caspase-3) was > 85.3 µM (inactive) and the EC50 (Caspase-7) was > 85.3 µM (inactive).

In the case of `O=S(=O)(Nc1nc2ccccc2[nH]1)c1ccc(Cl)cc1`, the EC50 (HEK293 [1]) is reported as 2.29 µM (active), the IC50 (HEK293 [2]) is reported as > 20 µM (inactive) and the IC50 (HEK293 [3]) is reported as > 20 µM (inactive). The IC50 (HEK293 [4]) was > 20 µM (inactive), the IC50 (Tumor necrosis factor) was > 20 µM (inactive) and the IC50 [5] was 1.52 µM (active). The IC50 [6] was > 20 µM (inactive), the IC50 [7] was > 20 µM (inactive) and the IC50 (HEK293 [8]) was > 20 µM (inactive).

With `O=C(NCc1ccc(Cl)cc1Cl)Nc1cncc(F)c1` the EC50 [9] was 8.64 µM (active).

For `COc1ccc(C2C(C(=O)c3cccs3)=C(O)C(=O)N2c2nncs2)cc1` (configuration not stated), the EC50 [10] was > 150 µM (inconclusive), the EC50 [11] was 0.549 µM (inconclusive) and the EC50 [12] was > 79.4 µM (inactive). The EC50 [13] was > 79.4 µM (not active), the EC50 [14] was 0.1 µM (inconclusive) and the EC50 [15] was > 38 µM (not active). For the same compound, the EC50 [16] was > 79.4 µM (not active), the AC50 (ORF 73) was 7.29 µM (active) and the AC50 [17] was 51.7 µM (active). The AC50 (Keap1/Nrf2) was 20.3 µM (active).
